The source of these data is patent publication US4861897A, “2-Aryloxyalkylaminobenzoxazoles and 2-aryloxyalkylaminobenzothiazoles” (Ortho Pharmaceutical Corporation, priority 1987, dated 1989).

For assay [1], the system named is cAMP stimulated parietal cells. Put plainly: Isolated parietal cell assay, inhibition of 14C-aminopyrine accumulation, dibutyryl cAMP stimulated. In kind it is cell-based, rabbit. The following applies: Oryctolagus cuniculus, 20 min, Example 48, 37° C., read-out: IC50 vcAMP (inhibition of 14C-AP accumulation in cAMP stimulated parietal cells). The protocol: (§1) Isolated Parietal Cell Assay
(§2) The isolated parietal cell assay was conducted using the procedures of Batzri, S. et al., Biochemica et Biophysica Acta 508, 328 (1978) and Soll, A. H. Am. J. Physiol. 238, G366 (1980). Basically, parietal cells were isolated from the fundic mucosa of rabbit stomachs by a four-stage collagenase digestion process. The supernatant fractions from the last two stages of this process contain the individual parietal cells. This cell suspension was centrifuged and reconstituted in a modified Hank's buffer to contain 1-2×10^6 cells/ml. […] This accumulation was stimulated by histamine and was blocked by H2 antagonists. The cells were incubated with 0.4-0.5×10^6 cpm ^14 C-AP, with various concentrations of histamine as a stimulant, 1×10^-5 M isobutylmethylxanthine, and the test compound added in a 20 μl volume of buffer or DMSO. The flasks were incubated in a shaking water bath at 37° C. for 20 minutes. Two aliquots were then taken from each flask and cell pellets were collected by centrifugation. The pellets were solubilized with Protosol (New England Nuclear) and radioactivity determined by liquid scintillation spectrometry. Data is presented as the IC50 vhist, the concentration of compound required to inhibit ^14 C-AP accumulation in the histamine stimulated parietal cell by 50%. When dibutyryl cAMP was used to stimulate the cells instead of histamine, a similar inhibition of ^14 C-AP accumulation was measured and the data are presented as the IC50 vcAMP, the concentration required to inhibit ^14 C-AP accumulation in the cAMP stimulated parietal cells by 50%.

The test system of assay [2] is histamine stimulated parietal cell. The assay can be described thus: Isolated parietal cell assay, inhibition of 14C-aminopyrine accumulation, histamine stimulated. The format is cell-based, rabbit. Particulars: Oryctolagus cuniculus, 20 min, Example 48, 37° C., read-out: IC50 vhist (inhibition of 14C-AP accumulation in histamine stimulated parietal cell). The protocol:
as §1, §2

For another assay, the system named is acid output. Put plainly: Gastric secretion, acid output in pylorus ligated rats. The format is in vivo, male Charles River Sprague Dawley derived rats. Particulars: Example 50, i.d. or s.c., four hours after pylorus ligation, compared to control; for response vs control in vivo at 40 mg/kg: @ 40 mpK; for response vs control in vivo at 20 mg/kg: @ 20 mpK; for % Acid Secreted at mpK: @ 10 mpK. As to the method:
The inhibitory activity of the compounds on acid output was tested using pylorus ligation in a modification of the procedure of Shay, H. et al., Gastroenterology 26, 906 (1954). Basically, male Charles River Sprague Dawley derived rats weighing 150-300 grams were deprived of food but not water for 18-24 hours prior to use. Water was withheld during the experiment, however. The rats were weighed, anesthetized with ether and the pylorus ligated according to the method of Shay et al., supra. Treatment or vehicle control was then administered intraduodenally (i.d.) or subcutaneously (s.c.). Rats were housed two/cage and sacrificed with CO2 four hours after ligation. The stomachs were removed, rinsed, and contents emptied into a graduated centrifuge tube. The tubes were centrifuged, the volume of gastric juice recorded, and any samples obviously contaminated by feces, food or blood were eliminated. A 1 ml aliquot of gastric juice was titrated with 0.1N NaOH to a pH of 7.0-7.4. The volume of gastric juice secreted, the acid concentration, and the product of the volume times the concentration, i.e., the total amount of acid secreted, were measured.

The target in assay [3] is T1, parietal cell H^+ K^+ ATPase (Oryctolagus cuniculus, UniProt P27112).
T1 construct: determined in fundic mucosa from New Zealand white rabbits which were homogenized; from tissue; host or cells: fundic mucosa of New Zealand white rabbits, homogenized; membrane protein
Put plainly: Inhibition of parietal cell H+ K+ ATPase. The format is biochemical, New Zealand white rabbits. The following applies: Example 49; for IC50: given as "50% @ x μM", read-out: % Inhibition at Concentration (H+ K+ ATPase): concentration given for 50% inhibition; for inhibition at 100 µM: @ 10^-4 M, read-out: % Inhibition at Concentration (H+ K+ ATPase). The protocol: Inhibition of Parietal Cell H^+ K^+ ATPase
The activity was measured in a 1 ml incubation volume containing 50 mM Tris pH 7.4, 2 mM MgCl2, 2 mM Na2 ATP, with or without 20 mM KCl and vehicle control (dimethylsulfoxide) or test compound added in a 0.02 ml volume. Typically, 20-50 μg membrane protein was added and the tubes were preincubated with test compound for 10 minutes at 37° C. Substrate, Na2 ATP, was then added and the tubes were incubated for another 15 minutes at 37° C. The reaction was stopped by the addition of 1 ml 14% trichloroacetic acid and the samples were centrifuged at 2,000 xg for 10 minutes. The amount of inorganic phosphate present in an aliquot of supernatant was determined. H^+ K^+ ATPase activity was determined after correcting for the basal (Mg^++ only) enzyme activity present in the membrane preparation.

Setting [4] is: Rattus norvegicus, 4 h, read-out: % Acid Secreted at mpK.

T1 sequence (P27112 2-1035 limits assumed): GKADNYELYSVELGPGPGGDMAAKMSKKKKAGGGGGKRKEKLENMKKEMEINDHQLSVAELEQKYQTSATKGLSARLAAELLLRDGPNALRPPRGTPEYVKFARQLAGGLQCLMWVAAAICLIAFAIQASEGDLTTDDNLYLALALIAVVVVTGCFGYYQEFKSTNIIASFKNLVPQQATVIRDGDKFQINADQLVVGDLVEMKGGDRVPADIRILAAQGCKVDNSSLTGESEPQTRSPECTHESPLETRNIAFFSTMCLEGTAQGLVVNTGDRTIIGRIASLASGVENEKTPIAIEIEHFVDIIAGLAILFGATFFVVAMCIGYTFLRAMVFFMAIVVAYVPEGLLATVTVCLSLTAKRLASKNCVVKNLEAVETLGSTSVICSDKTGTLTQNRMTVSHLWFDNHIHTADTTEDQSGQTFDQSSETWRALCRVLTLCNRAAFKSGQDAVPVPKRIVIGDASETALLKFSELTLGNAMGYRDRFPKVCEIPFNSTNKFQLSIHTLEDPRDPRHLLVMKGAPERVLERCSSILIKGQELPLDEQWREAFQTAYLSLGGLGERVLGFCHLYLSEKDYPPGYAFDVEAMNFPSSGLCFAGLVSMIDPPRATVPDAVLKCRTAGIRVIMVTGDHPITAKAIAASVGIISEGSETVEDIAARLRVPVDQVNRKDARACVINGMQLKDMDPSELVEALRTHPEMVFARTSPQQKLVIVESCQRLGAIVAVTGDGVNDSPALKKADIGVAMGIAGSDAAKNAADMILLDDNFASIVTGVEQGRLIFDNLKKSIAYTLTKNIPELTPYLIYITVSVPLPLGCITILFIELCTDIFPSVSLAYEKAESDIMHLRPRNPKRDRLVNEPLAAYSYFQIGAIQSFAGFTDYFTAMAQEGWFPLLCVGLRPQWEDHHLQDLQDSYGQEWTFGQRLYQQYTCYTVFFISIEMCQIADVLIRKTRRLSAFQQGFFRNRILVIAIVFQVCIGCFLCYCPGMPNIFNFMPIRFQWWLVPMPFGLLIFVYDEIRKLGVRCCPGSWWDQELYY
T1 sequence (P18597 whole entry partner): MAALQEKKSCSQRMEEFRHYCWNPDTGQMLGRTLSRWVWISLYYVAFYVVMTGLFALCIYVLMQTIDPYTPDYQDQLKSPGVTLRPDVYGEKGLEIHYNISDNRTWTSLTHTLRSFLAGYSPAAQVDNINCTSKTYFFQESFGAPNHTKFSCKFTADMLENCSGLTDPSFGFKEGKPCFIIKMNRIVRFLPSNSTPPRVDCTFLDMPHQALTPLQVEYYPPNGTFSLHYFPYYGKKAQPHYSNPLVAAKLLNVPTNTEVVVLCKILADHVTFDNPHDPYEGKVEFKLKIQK

For `C(=C\c1nc2ccccc2s1)/c1ccc(OCCCCn2ccnc2)cc1` [Example 40, (E)-2-[2-(4-(1H-Imidazol-1-yl)butoxyphenyl)ethenyl]benzothiazole], the IC50 in assay [1] came to 260 nM; in assay [2], 200 nM. Also, the response vs control in vivo at 40 mg/kg with acid output (setting [4]) was determined as 17%.

On to `COc1ccc2nc(/C=C/c3cccc(OCCCCn4ccnc4)c3)oc2c1` [Example 7, (E)-2-[2-(3-(1H-Imidazol-1-yl)butoxyphenyl)ethenyl]-6-methoxybenzoxazole], for which the IC50 came to 180 nM in assay [1], 74 µM in assay [3] and 120 nM in assay [2].

On to `CCCN(CCC)CCCOc1c(OC)cc(/C=C/c2nc3ccccc3o2)cc1OC` [Example 46, (E)-2-[2-(3,5-Dimethoxy-4-dipropylaminopropoxyphenyl)ethenyl]benzoxazole], for which the IC50 in assay [1] was 360 nM; in assay [3], 33 µM; in assay [2], 150 nM. The response vs control in vivo at 20 mg/kg in the assay on acid output (setting [4]) is 46%.

With `CCN(CC)CCCCOc1ccc(/C=C/c2nc3ccccc3o2)cc1` [Example 22], the IC50 was found to be 120 nM in assay [1], 74 µM in assay [3] and 80 nM in assay [2]. Further, the response vs control in vivo at 20 mg/kg in the assay with acid output (setting [4]) was 31%.

On to `C(=C\c1nc2ccccc2o1)/c1ccc(OCCCn2ccnc2)cc1` [Example 10, (E)-2-[2-(4-(1H-Imidazol-1-yl)propoxyphenyl)ethenyl]benzoxazole], for which the IC50 in assay [1] turned out to be 250 nM; in assay [3], 64 µM; in assay [2], 290 nM. Further, the response vs control in vivo at 20 mg/kg in the assay with acid output (setting [4]) is 26%.

For the compound `CCN(CC)CCCOc1ccc(/C=C/c2nc3ccccc3o2)cc1` [Example 11, (E)-2-[2-(4-Diethylaminopropoxyphenyl)ethenyl]benzoxazole], the IC50 was 980 nM in assay [1] and 320 nM in assay [2]. In addition, the inhibition at 100 µM in assay [3] worked out at 20%. In addition, in the assay with acid output (setting [4]), the response vs control in vivo at 40 mg/kg turned out to be 54%.

With `COc1ccccc1N1CCN(CCCOc2ccc(/C=C/c3nc4ccccc4s3)cc2)CC1` [Example 31], the results for the IC50 in assay [1] and in assay [2] were 3400 nM and 1700 nM, respectively. Moreover, the inhibition at 100 µM in assay [3] came to 33%. The response vs control in vivo at 20 mg/kg with acid output (setting [4]) was 11%.

As to `C(=C\c1nc2ccccc2s1)/c1ccc(OCCCn2ccnc2)cc1` [Example 32, (E)-2-[2-(4-(1H-Imidazol-1-yl)propoxyphenyl)ethenyl]benzothiazole], the IC50 was determined as 340 nM in assay [1] and 130 nM in assay [2]. Besides, the response vs control in vivo at 20 mg/kg in the assay on acid output (setting [4]) came to 22%.

Regarding `C(=C\c1nc2ccccc2s1)/c1ccc(OCCCCN2CCCC2)cc1` [Example 42, (E)-2-[2-(4-Pyrrolidinobutoxyphenyl)ethenyl]benzothiazole], the IC50 in assay [1] was determined as 260 nM; in assay [3] it was 17 µM; in assay [2], 160 nM. In addition, the response vs control in vivo at 40 mg/kg in the assay with acid output (setting [4]) is 20%.

As for `CCCCN(CCCC)CCCOc1ccc(/C=C/c2nc3cc(Cl)ccc3s2)cc1` [Example 36, (E)-2-[2-(4-Dibutylaminopropoxyphenyl)ethenyl]-5-chlorobenzothiazole], the values for the IC50 in assay [1] and in assay [2] were 500 nM and 400 nM, respectively. Further, the inhibition at 100 µM in assay [3] amounted to 52%. Moreover, the response vs control in vivo at 40 mg/kg in the assay with acid output (setting [4]) is 26%.

Consider `CCCCN(CCCC)CCOc1ccc(/C=C/c2nc3ccccc3s2)cc1` [Example 37, (E)-2-[2-(4-Dibutylaminoethoxyphenyl)ethenyl]benzothiazole], for which the values for the IC50 in assay [1] and in assay [2] were 600 nM and 430 nM, respectively. The inhibition at 100 µM in assay [3] came to 43%. In addition, in the assay on acid output (setting [4]), the response vs control in vivo at 20 mg/kg was found to be 14%.

Take `CCCCN(CCCC)CCCOc1cccc(/C=C/c2nc3ccccc3o2)c1` [Example 1]: the results for the IC50 in assay [1] and in assay [2] were 140 nM and 270 nM, respectively. Also, in assay [3], the inhibition at 100 µM stood at 49%. Moreover, the “% Acid Secreted at mpK” value in the assay on acid output was 52%. In addition, the response vs control in vivo at 5 mg/kg in the assay on acid output (Rattus norvegicus, 4 h, @ 5 mpK, read-out: % Acid Secreted at mpK) is 44%. In the assay with acid output (setting [4]), the response vs control in vivo at 20 mg/kg was found to be 78%.

Turning to `CCCCN(CCCC)CCCOc1ccc(-c2nc3ccccc3s2)cc1` [Example 43, 2-(4-Dibutylaminopropoxyphenyl)benzothiazole], the IC50 stood at 2600 nM in assay [1], 18 µM in assay [3] and 250 nM in assay [2].

For the compound `CCCN(CCC)CCCOc1ccc(/C=C/c2nc3ccccc3o2)cc1` [Example 9, (E)-2-[2-(4-Dipropylaminopropoxyphenyl)ethenyl]benzoxazole], the IC50 amounted to 350 nM in assay [1], 25 µM in assay [3] and 220 nM in assay [2]. Moreover, the “% Acid Secreted at mpK” value with acid output is recorded as 29%. Besides, the response vs control in vivo at 20 mg/kg in the assay on acid output (setting [4]) turned out to be 77%. Further, in the assay on acid output (setting [4]), the response vs control in vivo at 40 mg/kg was determined as 97%.

Consider `CCCN(CCC)CCCOc1ccc(-c2nc3ccccc3s2)cc1` [Example 44, 2-(4-Dipropylaminopropoxyphenyl)benzothiazole], for which the IC50 amounted to 140 nM in assay [1] and 210 nM in assay [2]. The inhibition at 100 µM in assay [3] was found to be 67%. In addition, the response vs control in vivo at 20 mg/kg with acid output (setting [4]) worked out at 42%.

As to `CCCCN(CCCC)CCCOc1ccc(/C=C/c2nc3ccccc3o2)cc1` [Example 8, (E)-2-[2-(4-Dibutylaminopropoxyphenyl)ethenyl]benzoxazole], the IC50 in assay [1] and in assay [2] was 150 nM each time. For the same compound, the inhibition at 100 µM in assay [3] amounted to 17%. Besides, the “% Acid Secreted at mpK” value with acid output stood at 44%. Further, the response vs control in vivo at 40 mg/kg with acid output (setting [4]) is 96%.

Take `C(=C\c1nc2ccccc2s1)/c1ccc(OCCn2ccnc2)cc1` [Example 39]: the IC50 came out at 460 nM in assay [1] and 390 nM in assay [2]. Moreover, the inhibition at 100 µM in assay [3] was found to be 19%. Moreover, in the assay on acid output (setting [4]), the response vs control in vivo at 40 mg/kg amounted to 32%.

In the case of `C(=C\c1nc2ccccc2o1)/c1cccc(OCCCCn2ccnc2)c1` [Example 6], the IC50 in assay [1] amounted to 230 nM; in assay [3], 13 µM; in assay [2], 280 nM. Further, the response vs control in vivo at 20 mg/kg with acid output (setting [4]) is 45%.

With `C(=C\c1nc2ccccc2o1)/c1ccc(OCCCCN2CCCC2)cc1` [Example 23, (E)-2-[2-(4-Pyrrolinobutoxyphenyl)ethenyl]benzoxazole], the IC50 worked out at 240 nM in assay [1], 84 µM in assay [3] and 170 nM in assay [2]. In addition, the response vs control in vivo at 40 mg/kg in the assay on acid output (setting [4]) is 24%.

As to `CCCN(CCC)CCCOc1ccc(/C=C/c2nc3ccccc3s2)cc1` [Example 29, (E)-2-[2-(4-Dipropylaminopropoxyphenyl)ethenyl]benzothiazole], the results for the IC50 in assay [1] and in assay [2] were 210 nM and 260 nM, respectively. Further, the response vs control in vivo at 20 mg/kg in the assay on acid output (setting [4]) was found to be 30%.

Take `CCN(CC)CCCOc1ccc(/C=C/c2nc3ccccc3s2)cc1` [Example 30, (E)-2-[2-(4-Diethylaminopropoxyphenyl)ethenyl]benzothiazole]: the results for the IC50 in assay [1] and in assay [2] were 150 nM and 370 nM, respectively. Also, in the assay with acid output (setting [4]), the response vs control in vivo at 40 mg/kg was found to be 71%.
